In patent US20040156869A1, “2-substituted quinazolin-4-ylamine analogues” (Neurogen Corporation, priority 2002, published 2004):

target: human capsaicin receptor (VR1) (Homo sapiens, UniProt Q8NER1); test: Capsaicin receptor binding assay ([3H]RTX competition, VR1-transfected HEK293 membranes)
Sequence (Q8NER1 whole entry): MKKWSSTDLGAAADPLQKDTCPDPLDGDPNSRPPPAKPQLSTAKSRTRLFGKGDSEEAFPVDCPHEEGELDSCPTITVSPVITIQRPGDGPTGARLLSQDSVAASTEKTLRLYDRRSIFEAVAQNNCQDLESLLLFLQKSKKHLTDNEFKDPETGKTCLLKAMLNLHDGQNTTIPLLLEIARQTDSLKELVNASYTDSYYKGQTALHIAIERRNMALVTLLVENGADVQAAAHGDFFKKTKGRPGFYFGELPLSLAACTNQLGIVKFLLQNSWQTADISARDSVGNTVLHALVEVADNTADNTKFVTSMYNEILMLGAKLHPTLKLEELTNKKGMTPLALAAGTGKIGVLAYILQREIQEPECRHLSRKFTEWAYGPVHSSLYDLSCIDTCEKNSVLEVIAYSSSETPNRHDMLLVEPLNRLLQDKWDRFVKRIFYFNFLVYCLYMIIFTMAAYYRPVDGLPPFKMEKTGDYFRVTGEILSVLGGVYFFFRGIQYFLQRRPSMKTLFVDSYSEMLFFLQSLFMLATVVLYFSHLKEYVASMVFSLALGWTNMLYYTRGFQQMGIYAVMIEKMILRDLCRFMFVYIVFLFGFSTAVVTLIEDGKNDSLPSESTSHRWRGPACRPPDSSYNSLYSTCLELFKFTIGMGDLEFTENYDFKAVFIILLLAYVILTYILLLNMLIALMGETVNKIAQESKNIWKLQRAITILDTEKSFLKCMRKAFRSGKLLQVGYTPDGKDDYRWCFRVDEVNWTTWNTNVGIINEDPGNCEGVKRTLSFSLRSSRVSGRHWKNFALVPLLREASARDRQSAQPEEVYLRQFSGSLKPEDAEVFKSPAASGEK

Ki, < 1000 nM:
O=C(c1nc(Nc2ccc(C(F)(F)F)cc2)c2ccc(-c3ncccc3C(F)(F)F)nc2n1)N1CCSCC1 [Compound 463, Thiomorpholin-4-yl-[4-(4-trifluoromethyl-phenylamino)-7-(3-trifluoromethyl-pyridin-2-yl)-pyrido[2,3-d]pyrimidin-2-yl]-methanone]
C=CCN(C)C(=O)c1nc(Nc2ccc(C(F)(F)F)cc2)c2ccc(-c3ncccc3C(F)(F)F)nc2n1 [Compound 464, 4-(4-Trifluoromethyl-phenylamino)-7-(3-trifluoromethyl-pyridin-2-yl)-pyrido[2,3-d]pyrimidine-2-carboxyiic acid allyl-methyl-amide]
C=CCN(CC=C)C(=O)c1nc(Nc2ccc(C(F)(F)F)cc2)c2ccc(-c3ncccc3C(F)(F)F)nc2n1 [Compound 465, 4-(4-Trifluoromethyl-phenylamino)-7-(3-trifluoromethyl-pyridin-2-yl)-pyrido[2,3-d]pyrimidine-2-carboxylic acid diallylamide]
CCCN(CCC)C(=O)c1nc(Nc2ccc(C(F)(F)F)cc2)c2ccc(-c3ncccc3C(F)(F)F)nc2n1 [Compound 466, 4-(4-Trifluoromethyl-phenylamino)-7-(3-trifluoromethyl-pyridin-2-yl)-pyrido[2,3-d]pyrimidine-2-carboxylic acid dipropylamide]
CN(C)C(=O)c1nc(Nc2ccc(C(F)(F)F)cc2)c2ccc(-c3ncccc3C(F)(F)F)nc2n1 [Compound 467, 4-(4-Trifluoromethyl-phenylamino)-7-(3-trifluoromethyl-pyridin-2-yl)-pyrido[2,3-d]pyrimidine-2-carboxylic acid dimethylamide]
CC1(C)CCCC(NC(=O)c2nc(Nc3ccc(C(F)(F)F)cc3)c3ccc(-c4ncccc4C(F)(F)F)nc3n2)C1 (centres unmarked) [Compound 468, 4-(4-Trifluoromethyl-phenylamino)-7-(3-trifluoromethyl-pyridin-2-yl)-pyrido[2,3-d]pyrimidine-2-carboxylic acid (3,3-dimethyl-cyclohexyl)-amide]
COCCN(CCOC)C(=O)c1nc(Nc2ccc(C(F)(F)F)cc2)c2ccc(-c3ncccc3C(F)(F)F)nc2n1 [Compound 469, 4-(4-Trifluoromethyl-phenylamino)-7-(3-trifluoromethyl-pyridin-2-yl)-pyrido[2,3-d]pyrimidine-2-carboxylic acid bis-(2-methoxy-ethyl)-amide]
CC1CC(C)CC(NC(=O)c2nc(Nc3ccc(C(F)(F)F)cc3)c3ccc(-c4ncccc4C(F)(F)F)nc3n2)C1 (centres unmarked) [Compound 470, 4-(4-Trifluoromethyl-phenylamino)-7-(3-trifluoromethyl-pyridin-2-yl)-pyrido[2,3-d]pyrimidine-2-carboxylic acid (3,5-dimethyl-cyclohexyl)-amide]
CC(C)N1CCN(C(=O)c2nc(Nc3ccc(C(F)(F)F)cc3)c3ccc(-c4ncccc4C(F)(F)F)nc3n2)CC1 [Compound 471, (4-Isopropyl-piperazin-1-yl)-[4-(4-trifluoromethyl-phenylamino)-7-(3-trifluoromethyl-pyridin-2-yl)-pyrido[2,3-d]pyrimidin-2-yl]-methanone]
CN1CCN(C(=O)c2nc(Nc3ccc(C(F)(F)F)cc3)c3ccc(-c4ncccc4C(F)(F)F)nc3n2)CC1 [Compound 472, (4-Methyl-piperazin-1-yl)-[4-(4-trifluoromethyl-phenylamino)-7-(3-trifluoromethyl-pyridin-2-yl)-pyrido[2,3-d]pyrimidin-2-yl]-methanone]
O=C(c1nc(Nc2ccc(C(F)(F)F)cc2)c2ccc(-c3ncccc3C(F)(F)F)nc2n1)N1CCN(C2CCCC2)CC1 [Compound 473, (4-Cyclopentyl-piperazin-1-yl)-[4-(4-trifluoromethyl-phenylamino)-7-(3-trifluoromethyl-pyridin-2-yl)-pyrido[2,3-d]pyrimidin-2-yl]-methanone]
O=C(c1nc(Nc2ccc(C(F)(F)F)cc2)c2ccc(-c3ncccc3C(F)(F)F)nc2n1)N1CCN(C2CCCCCC2)CC1 [Compound 474, (4-Cycloheptyl-piperazin-1-yl)-[4-(4-trifluoromethyl-phenylamino)-7-(3-trifluoromethyl-pyridin-2-yl)-pyrido[2,3-d]pyrimidin-2-yl]-methanone]
CC(C)(C)c1ccc(Nc2nc(CN3CCCC3)nc3cc(-c4ncccc4C(F)(F)F)ccc23)cc1 [Compound 475, (4-tert-Butyl-phenyl)-[2-pyrrolidin-1-ylmethyl-7-(3-trifluoromethyl-pyridin-2-yl)-quinazolin-4-yl]-amine]
CC(C)(C)c1ccc(Nc2nc(CN3CCCCC3)nc3cc(-c4ncccc4C(F)(F)F)ccc23)cc1 [Compound 476, (4-tert-Butyl-phenyl)-[2-piperidin-1-ylmethyl-7-(3-trifluoromethyl-pyridin-2-yl)-quinazolin-4-yl]-amine]
O=C(CCc1nc(Nc2ccc(C(F)(F)F)cc2)c2ccc(-c3ncccc3C(F)(F)F)cc2n1)N1CCCC1 [Compound 478, 1-Pyrrolidin-1-yl-3-[4-(4-trifluoromethyl-phenylamino)-7-(3-trifluoromethyl-pyridin-2-yl)-quinazolin-2-yl]-propan-1-one]
OCCC1CCN(Cc2nc(Nc3ccc(C(F)(F)F)nc3)c3ccc(-c4ncccc4C(F)(F)F)cc3n2)CC1 [Compound 481, 2-{1-[7-(3-Trifluoromethyl-pyridin-2-yl)-4-(6-trifluoromethyl-pyridin-3-ylamino)-quinazolin-2-ylmethyl]-piperidin-4-yl}-ethanol]
OCC1CCN(Cc2nc(Nc3ccc(C(F)(F)F)nc3)c3ccc(-c4ncccc4C(F)(F)F)cc3n2)CC1 [Compound 482, {1-[7-(3-Trifluoromethyl-pyridin-2-yl)-4-(6-trifluoromethyl-pyridin-3-ylamino)-quinazolin-2-ylmethyl]-piperidin-4-yl}-methanol]
CCOC(=O)N1CCN(Cc2nc(Nc3ccc(C(F)(F)F)nc3)c3ccc(-c4ncccc4C(F)(F)F)cc3n2)CC1 [Compound 483, 4-[7-(3-Trifluoromethyl-pyridin-2-yl)-4-(6-trifluoromethyl-pyridin-3-ylamino)-quinazolin-2-ylmethyl]-piperazine-1-carboxylic acid ethyl ester]
OC1CCN(Cc2nc(Nc3ccc(C(F)(F)F)nc3)c3ccc(-c4ncccc4C(F)(F)F)cc3n2)CC1 [Compound 484, 1-[7-(3-Trifluoromethyl-pyridin-2-yl)-4-(6-trifluoromethyl-pyridin-3-ylamino)-quinazolin-2-ylmethyl]-piperidin-4-ol]
CC1CCCN(Cc2nc(Nc3ccc(C(F)(F)F)nc3)c3ccc(-c4ncccc4C(F)(F)F)cc3n2)C1 (centres unmarked) [Compound 485, [2-(3-Methyl-piperidin-1-ylmethyl)-7-(3-trifluoromethyl-pyridin-2-yl)-quinazolin-4-yl]-(6-trifluoromethyl-pyridin-3-yl)-amine]
OC1CCCN(Cc2nc(Nc3ccc(C(F)(F)F)nc3)c3ccc(-c4ncccc4C(F)(F)F)cc3n2)C1 (centres unmarked) [Compound 486, 1-[7-(3-Trifluoromethyl-pyridin-2-yl)-4-(6-trifluoromethyl-pyridin-3-ylamino)-quinazolin-2-ylmethyl]-piperidin-3-ol]
NC(=O)C1CCN(Cc2nc(Nc3ccc(C(F)(F)F)nc3)c3ccc(-c4ncccc4C(F)(F)F)cc3n2)CC1 [Compound 487, 1-[7-(3-Trifluoromethyl-pyridin-2-yl)-4-(6-trifluoromethyl-pyridin-3-ylamino)-quinazolin-2-ylmethyl]-piperidine-4-carboxylic acid amide]
CCOC(=O)C1CCCN(Cc2nc(Nc3ccc(C(F)(F)F)nc3)c3ccc(-c4ncccc4C(F)(F)F)cc3n2)C1 (centres unmarked) [Compound 488, 1-[7-(3-Trifluoromethyl-pyridin-2-yl)-4-(6-trifluoromethyl-pyridin-3-ylamino)-quinazolin-2-ylmethyl]-piperidine-3-carboxylic acid ethyl ester]
CC(=O)N1CCN(Cc2nc(Nc3ccc(C(F)(F)F)nc3)c3ccc(-c4ncccc4C(F)(F)F)cc3n2)CC1 [Compound 489, 1 -{4-[7-(3-Trifluoromethyl-pyridin-2-yl)-4-(6-trifluoromethyl-pyridin-3-ylamino)-quinazolin-2-ylmethyl]-piperazin-1-yl}-ethanone]
OCC1CCCN(Cc2nc(Nc3ccc(C(F)(F)F)nc3)c3ccc(-c4ncccc4C(F)(F)F)cc3n2)C1 (centres unmarked) [Compound 490, {1-[7-(3-Trifluoromethyl-pyridin-2-yl)-4-(6-trifluoromethyl-pyridin-3-ylamino)-quinazolin-2-ylmethyl]-piperidin-3-yl}-methanol]
CCOC(=O)C1CCN(Cc2nc(Nc3ccc(C(F)(F)F)nc3)c3ccc(-c4ncccc4C(F)(F)F)cc3n2)CC1 [Compound 491, 1-[7-(3-Trifluoromethyl-pyridin-2-yl)-4-(6-trifluoromethyl-pyridin-3-ylamino)-quinazolin-2-ylmethyl]-piperidine-4-carboxylic acid ethyl ester]
OCCN1CCN(Cc2nc(Nc3ccc(C(F)(F)F)nc3)c3ccc(-c4ncccc4C(F)(F)F)cc3n2)CC1 [Compound 492, 2-{4-[7-(3-Trifluoromethyl-pyridin-2-yl)-4-(6-trifluoromethyl-pyridin-3-ylamino)-quinazolin-2-ylmethyl]-piperazin-1-yl}-ethanol]
OCCC1CCN(Cc2nc(Nc3ccc(C(F)(F)F)cc3)c3ccc(-c4ncccc4C(F)(F)F)cc3n2)CC1 [Compound 494, 2-{1-[4-(4-Trifluoromethyl-phenylamino)-7-(3-trifluoromethyl-pyridin-2-yl)-quinazolin-2-ylmethyl]-piperidin-4-yl}-ethanol]
OCC1CCN(Cc2nc(Nc3ccc(C(F)(F)F)cc3)c3ccc(-c4ncccc4C(F)(F)F)cc3n2)CC1 [Compound 495, {1-[4-(4-Trifluoromethyl-phenylamino)-7-(3-trifluoromethyl-pyridin-2-yl)-quinazolin-2-ylmethyl]-piperidin-4-yl}-methanol]
